The source of these data is paper PMC10620162, “Structure—yeast α-glucosidase inhibitory activity relationship of 9-O-berberrubine carboxylates” (Scientific Reports, 2023).

The term inhibition denotes the percentage by which the read-out fell short of the control. As usually defined, the IC50 is the midpoint of a concentration-inhibition curve. As a reminder, the Inhibition is the drop in the measured response relative to a control, in per cent. Low values mean a weak effect, high ones a strong effect.

In this test the target is T1, yeast α-glucosidase (Saccharomyces cerevisiae, UniProt P53341).
T1 construct: purchased Sigma Aldrich
Briefly: biochemical. The note with it: for inhibition at 50 µM: read-out: Inhibition at 50 μM (%), 50 μM. As to the method: Berberrubine derivatives will be assayed for yeast α-glucosidase inhibitory activity. The protocol described by Ramadhan et al. will be used[37]. Briefly, yeast α-glucosidase (0.1 U/mL) and substrate (1 mM p-nitrophenyl-α-D-glucopyranoside) were dissolved in 0.1 M phosphate buffer (pH 6.9). A 10 μL test sample was pre-incubated with α-glucosidase (40 μL) at 37 °C for 10 min. A substrate solution (50 μL) was then added to the reaction mixture and incubated at 37 °C for an additional 20 min, and terminated by adding 1 M Na2CO3 solution (100 μL). […] The percentage inhibition of activity was calculated as follows: % Inhibition = [(A0 − A1)/A0] × 100, where: A0 is the absorbance without the sample; A1 is the absorbance with the sample. The IC50 value was deduced from the plot of % inhibition versus the concentration of the test sample.

Each structure is given as a SMILES string. Where two headings read alike, the source gives them in different places.

T1 sequence (P53341 whole entry): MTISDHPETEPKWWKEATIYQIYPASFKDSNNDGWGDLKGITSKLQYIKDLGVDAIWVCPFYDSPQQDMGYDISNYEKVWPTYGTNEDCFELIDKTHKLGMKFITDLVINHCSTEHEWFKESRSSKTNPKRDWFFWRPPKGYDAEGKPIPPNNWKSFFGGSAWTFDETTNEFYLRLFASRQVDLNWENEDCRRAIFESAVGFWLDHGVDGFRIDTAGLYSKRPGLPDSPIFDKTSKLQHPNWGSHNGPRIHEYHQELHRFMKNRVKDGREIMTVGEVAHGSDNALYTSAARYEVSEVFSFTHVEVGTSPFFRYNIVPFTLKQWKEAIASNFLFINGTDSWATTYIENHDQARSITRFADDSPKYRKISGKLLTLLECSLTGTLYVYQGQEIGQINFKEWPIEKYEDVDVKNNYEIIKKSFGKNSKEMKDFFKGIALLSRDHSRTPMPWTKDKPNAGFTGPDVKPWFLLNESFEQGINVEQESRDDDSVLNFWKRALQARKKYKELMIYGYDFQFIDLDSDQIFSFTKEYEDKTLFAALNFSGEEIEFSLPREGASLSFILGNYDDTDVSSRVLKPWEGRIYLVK

As to `COc1ccc2cc3[n+](cc2c1O)CCc1cc2c(cc1-3)OCO2` [BBRB, 9-hydroxy-10-methoxy-5,6-dihydro-[1,3]dioxolo[4,5-g]isoquinolino[3,2-a]isoquinolin-7-ium chloride, reference compound], the inhibition at 50 µM is under 0%.

For `COc1ccc2cc3[n+](cc2c1OC(=O)c1ccccc1)CCc1cc2c(cc1-3)OCO2.[Cl-]` [Compound 1, 9-(benzoyloxy)-10-methoxy-5,6-dihydro-[1,3]dioxolo[4,5-g]isoquinolino[3,2-a]isoquinolin-7-ium chloride], the IC50 was determined as 25.3 ± 2.63 µM and the inhibition at 50 µM was found to be 58%. For the same compound, the “Inhibition at 50 μM (%)” value (50 μM) is reported as 57.67%.

For `COc1ccccc1C(=O)Oc1c(OC)ccc2cc3[n+](cc12)CCc1cc2c(cc1-3)OCO2` [Compound 2, 10-methoxy-9-((2-methoxybenzoyl)oxy)-5,6-dihydro-[1,3]dioxolo[4,5-g]isoquinolino[3,2-a]isoquinolin-7-ium chloride], the IC50 amounted to 19.5 ± 1.62 µM and the inhibition at 50 µM came out at 79.1%.

On to `COc1cccc(C(=O)Oc2c(OC)ccc3cc4[n+](cc23)CCc2cc3c(cc2-4)OCO3)c1` [Compound 3, 10-methoxy-9-((3-methoxybenzoyl)oxy)-5,6-dihydro-[1,3]dioxolo[4,5-g]isoquinolino[3,2-a]isoquinolin-7-ium chloride], for which the concentration for half-maximal inhibition (IC50) came to 11.6 ± 1.19 µM and the inhibition at 50 µM was determined as 89.7%.

As to `COc1ccc(C(=O)Oc2c(OC)ccc3cc4[n+](cc23)CCc2cc3c(cc2-4)OCO3)cc1` [Compound 4, 10-methoxy-9-((4-methoxybenzoyl)oxy)-5,6-dihydro-[1,3]dioxolo[4,5-g]isoquinolino[3,2-a]isoquinolin-7-ium chloride], the IC50 stood at 18.4 ± 1.31 µM and the inhibition at 50 µM was determined as 80%.

Consider `COc1ccc2cc3[n+](cc2c1OC(=O)c1cccc(O)c1)CCc1cc2c(cc1-3)OCO2` [Compound 5, 9-((3-hydroxybenzoyl)oxy)-10-methoxy-5,6-dihydro-[1,3]dioxolo[4,5-g]isoquinolino[3,2-a]isoquinolin-7-ium chloride], for which the inhibition at 50 µM turned out to be 98.1%. In addition, the IC50 (read-out: IC50) amounted to 7.51 ± 0.42 µM.

Regarding `COc1ccc(C(=O)Oc2c(OC)ccc3cc4[n+](cc23)CCc2cc3c(cc2-4)OCO3)cc1OC` [Compound 6, 9-((3,4-dimethoxybenzoyl)oxy)-10-methoxy-5,6-dihydro-[1,3]dioxolo[4,5-g]isoquinolino[3,2-a]isoquinolin-7-ium chloride], the 50% inhibitory concentration (IC50) is 19.1 ± 1.01 µM and the inhibition at 50 µM turned out to be 73.9%.

For the compound `COc1ccc2cc3[n+](cc2c1OC(=O)c1ccc2c(c1)OCO2)CCc1cc2c(cc1-3)OCO2` [Compound 7, 9-((benzo[d][1,3]dioxole-5-carbonyl)oxy)-10-methoxy-5,6-dihydro-[1,3]dioxolo[4,5-g]isoquinolino[3,2-a]isoquinolin-7-ium chloride], the inhibition at 50 µM turned out to be 99.7%. For the same compound, for the setting “read-out: IC50”, the IC50 was determined as 6.44 ± 0.5 µM.

Regarding `COc1cc(C(=O)Oc2c(OC)ccc3cc4[n+](cc23)CCc2cc3c(cc2-4)OCO3)cc(OC)c1OC` [Compound 8, 10-methoxy-9-((3,4,5-trimethoxybenzoyl)oxy)-5,6-dihydro-[1,3]dioxolo[4,5-g]isoquinolino[3,2-a]isoquinolin-7-ium chloride], the IC50 was determined as 23.9 ± 1.87 µM and the inhibition at 50 µM is 72%.

`COc1ccc2cc3[n+](cc2c1OC(=O)c1ccccc1Cl)CCc1cc2c(cc1-3)OCO2` [Compound 10, 9-((2-chlorobenzoyl)oxy)-10-methoxy-5,6-dihydro-[1,3]dioxolo[4,5-g]isoquinolino[3,2-a]isoquinolin-7-ium chloride]: the IC50 worked out at 12.2 ± 0.82 µM and the inhibition at 50 µM came to 88.5%.

`COc1ccc2cc3[n+](cc2c1OC(=O)c1cccc(Cl)c1)CCc1cc2c(cc1-3)OCO2` [Compound 11, 9-((3-chlorobenzoyl)oxy)-10-methoxy-5,6-dihydro-[1,3]dioxolo[4,5-g]isoquinolino[3,2-a]isoquinolin-7-ium chloride]: the inhibition at 50 µM came to 95.5%. The IC50 (read-out: IC50) amounted to 9.43 ± 0.8 µM.

As for `COc1ccc2cc3[n+](cc2c1OC(=O)c1ccc(Cl)cc1)CCc1cc2c(cc1-3)OCO2` [Compound 12, 9-((4-chlorobenzoyl)oxy)-10-methoxy-5,6-dihydro-[1,3]dioxolo[4,5-g]isoquinolino[3,2-a]isoquinolin-7-ium chloride], the IC50 amounted to 10.6 ± 0.6 µM and the inhibition at 50 µM came to 96.5%.

For the compound `COc1ccc2cc3[n+](cc2c1OC(=O)c1ccccc1F)CCc1cc2c(cc1-3)OCO2` [Compound 13, 9-((2-fluorobenzoyl)oxy)-10-methoxy-5,6-dihydro-[1,3]dioxolo[4,5-g]isoquinolino[3,2-a]isoquinolin-7-ium chloride], the IC50 was 24.9 ± 1.78 µM and the inhibition at 50 µM was found to be 72%.

With `COc1ccc2cc3[n+](cc2c1OC(=O)c1cccc(F)c1)CCc1cc2c(cc1-3)OCO2` [Compound 14, 9-((3-fluorobenzoyl)oxy)-10-methoxy-5,6-dihydro-[1,3]dioxolo[4,5-g]isoquinolino[3,2-a]isoquinolin-7-ium chloride], inhibition was half-maximal at 32.8 ± 1.88 µM (IC50) and the inhibition at 50 µM came out at 63%.

In the case of `COc1ccc2cc3[n+](cc2c1OC(=O)c1ccc(F)cc1)CCc1cc2c(cc1-3)OCO2` [Compound 15, 9-((4-fluorobenzoyl)oxy)-10-methoxy-5,6-dihydro-[1,3]dioxolo[4,5-g]isoquinolino[3,2-a]isoquinolin-7-ium chloride], 21.3 ± 1.97 µM corresponded to half-maximal inhibition (IC50) and the inhibition at 50 µM turned out to be 73.9%.

In the case of `COc1ccc2cc3[n+](cc2c1OC(=O)c1ccccc1Br)CCc1cc2c(cc1-3)OCO2` [Compound 16, 9-((2-bromobenzoyl)oxy)-10-methoxy-5,6-dihydro-[1,3]dioxolo[4,5-g]isoquinolino[3,2-a]isoquinolin-7-ium chloride], the inhibition at 50 µM is 95.3%. Moreover, the IC50 (read-out: IC50) was determined as 6.45 ± 0.52 µM.

Consider `COc1ccc2cc3[n+](cc2c1OC(=O)c1ccccc1I)CCc1cc2c(cc1-3)OCO2` [Compound 17, 9-((2-iodobenzoyl)oxy)-10-methoxy-5,6-dihydro-[1,3]dioxolo[4,5-g]isoquinolino[3,2-a]isoquinolin-7-ium chloride], for which the inhibition at 50 µM stood at 94.9%. Moreover, the half-inhibitory concentration (IC50) (read-out: IC50) amounted to 9.24 ± 0.5 µM.

On to `COc1ccc2cc3[n+](cc2c1OC(=O)c1ccccc1C(F)(F)F)CCc1cc2c(cc1-3)OCO2` [Compound 18, 10-methoxy-9-((2-(trifluoromethyl)benzoyl)oxy)-5,6-dihydro-[1,3]dioxolo[4,5-g]isoquinolino[3,2-a]isoquinolin-7-ium chloride], for which it took 15.7 ± 1.34 µM to reach half-maximal inhibition (IC50) and the inhibition at 50 µM turned out to be 86.1%.

Take `COc1ccc2cc3[n+](cc2c1OC(=O)c1ccccc1[N+](=O)[O-])CCc1cc2c(cc1-3)OCO2` [Compound 19, 10-methoxy-9-((2-nitrobenzoyl)oxy)-5,6-dihydro-[1,3]dioxolo[4,5-g]isoquinolino[3,2-a]isoquinolin-7-ium chloride]: the midpoint of inhibition, the IC50, lay at 10.5 ± 1.03 µM and the inhibition at 50 µM amounted to 81.6%.

As for `COc1ccc2cc3[n+](cc2c1OC(=O)c1ccc(C#N)cc1)CCc1cc2c(cc1-3)OCO2` [Compound 20, 9-((4-cyanobenzoyl)oxy)-10-methoxy-5,6-dihydro-[1,3]dioxolo[4,5-g]isoquinolino[3,2-a]isoquinolin-7-ium chloride], the IC50 was found to be 26.5 ± 2.5 µM and the inhibition at 50 µM is 55.6%.
